Assays:
[1] = biological target: KDM5C (Homo sapiens, UniProt P41229); experiment: Covalent binding by MS, KDM5C; conditions: same conditions as with KDM5B
[2] = biological target: T1, KDM4B (Homo sapiens, UniProt O94953); experiment: Covalent binding by MS, KDM4B; conditions: same conditions as with KDM5B
T1 sequence (O94953 1-1096): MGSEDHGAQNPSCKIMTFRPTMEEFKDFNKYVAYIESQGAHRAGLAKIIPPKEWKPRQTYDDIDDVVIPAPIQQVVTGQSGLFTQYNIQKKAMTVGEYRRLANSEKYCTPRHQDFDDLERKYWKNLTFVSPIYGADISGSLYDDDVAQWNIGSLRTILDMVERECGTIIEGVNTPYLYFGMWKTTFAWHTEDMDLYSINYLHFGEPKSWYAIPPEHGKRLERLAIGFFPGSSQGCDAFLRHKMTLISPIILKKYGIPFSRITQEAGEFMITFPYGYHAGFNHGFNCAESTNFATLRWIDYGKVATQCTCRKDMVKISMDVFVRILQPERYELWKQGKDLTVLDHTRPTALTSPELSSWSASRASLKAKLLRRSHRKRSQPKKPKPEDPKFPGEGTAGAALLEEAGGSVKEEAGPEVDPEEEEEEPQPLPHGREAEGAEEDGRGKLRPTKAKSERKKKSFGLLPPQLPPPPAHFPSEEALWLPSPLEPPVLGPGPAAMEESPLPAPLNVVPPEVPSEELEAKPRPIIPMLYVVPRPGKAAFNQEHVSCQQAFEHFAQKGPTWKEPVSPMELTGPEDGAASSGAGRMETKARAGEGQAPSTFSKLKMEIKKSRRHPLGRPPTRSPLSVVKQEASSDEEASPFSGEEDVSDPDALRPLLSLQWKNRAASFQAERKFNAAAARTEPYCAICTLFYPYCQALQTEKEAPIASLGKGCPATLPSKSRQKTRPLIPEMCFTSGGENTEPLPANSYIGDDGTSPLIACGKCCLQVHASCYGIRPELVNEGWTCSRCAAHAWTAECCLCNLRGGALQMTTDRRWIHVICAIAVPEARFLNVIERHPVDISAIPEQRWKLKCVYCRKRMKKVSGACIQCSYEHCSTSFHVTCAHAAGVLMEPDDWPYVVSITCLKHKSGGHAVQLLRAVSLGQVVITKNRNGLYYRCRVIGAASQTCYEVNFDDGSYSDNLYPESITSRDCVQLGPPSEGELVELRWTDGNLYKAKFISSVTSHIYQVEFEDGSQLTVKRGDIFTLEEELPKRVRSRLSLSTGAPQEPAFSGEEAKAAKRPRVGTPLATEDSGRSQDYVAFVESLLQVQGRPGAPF
Protocol: Covalent binding of the inhibitors with KDM5B was confirmed through MS‐labelling experiments (Figure 3). […] The specific covalent binding to KDM5B explains the improved selectivity over KDM5C and KDM4B compared to non‐covalent inhibitor 2.
Covalent binding RapidFire
Recombinant KDM5B (MW = 55152 Da) was incubated at 1 μM with the appropriate compound at 10 μM for 2 hours at 37 °C in 50 mM MES buffer at pH 7.0. Samples were injected in RapidFire 365 and MS was detected in QTOF mass spectrometer. Data were acquire and analysed with Agilent Mass Hunter software.
Recombinant KDM5B was incubated at 1 μM with the appropriate compound at 10 μM for 2 hours at 37 °C in 200 µL of 50 mM MES buffer at pH 7.0. […]
Digestion with elastase (1 µL) overnight at 37 °C followed by purification with SEP-PAK C18 columns and resuspension of the final sample in 98% MilliQ-H20 2% CH3CN 0.1% TFA gave the final sample ready to inject. […]
NanoBRET™ Nano-Glo® substrate (Promega UK) and Extracellular NanoLuc Inhibitor (Promega UK) were added at final concentrations of 10 and 20 µM, respectively. Readings were performed within 5 minutes using a PHERAstar FSX (BMG Labtech) with 450 and 610 nm filters. Corrected BRET ratios were calculated and is defined as the ratio if the emission at 610/450 nm for experimental samples (i.e. those treated with tracer) minus the emission at 610/450 nm for control samples (DMSO controls). […]

KDM5C, sequence (P41229 whole entry): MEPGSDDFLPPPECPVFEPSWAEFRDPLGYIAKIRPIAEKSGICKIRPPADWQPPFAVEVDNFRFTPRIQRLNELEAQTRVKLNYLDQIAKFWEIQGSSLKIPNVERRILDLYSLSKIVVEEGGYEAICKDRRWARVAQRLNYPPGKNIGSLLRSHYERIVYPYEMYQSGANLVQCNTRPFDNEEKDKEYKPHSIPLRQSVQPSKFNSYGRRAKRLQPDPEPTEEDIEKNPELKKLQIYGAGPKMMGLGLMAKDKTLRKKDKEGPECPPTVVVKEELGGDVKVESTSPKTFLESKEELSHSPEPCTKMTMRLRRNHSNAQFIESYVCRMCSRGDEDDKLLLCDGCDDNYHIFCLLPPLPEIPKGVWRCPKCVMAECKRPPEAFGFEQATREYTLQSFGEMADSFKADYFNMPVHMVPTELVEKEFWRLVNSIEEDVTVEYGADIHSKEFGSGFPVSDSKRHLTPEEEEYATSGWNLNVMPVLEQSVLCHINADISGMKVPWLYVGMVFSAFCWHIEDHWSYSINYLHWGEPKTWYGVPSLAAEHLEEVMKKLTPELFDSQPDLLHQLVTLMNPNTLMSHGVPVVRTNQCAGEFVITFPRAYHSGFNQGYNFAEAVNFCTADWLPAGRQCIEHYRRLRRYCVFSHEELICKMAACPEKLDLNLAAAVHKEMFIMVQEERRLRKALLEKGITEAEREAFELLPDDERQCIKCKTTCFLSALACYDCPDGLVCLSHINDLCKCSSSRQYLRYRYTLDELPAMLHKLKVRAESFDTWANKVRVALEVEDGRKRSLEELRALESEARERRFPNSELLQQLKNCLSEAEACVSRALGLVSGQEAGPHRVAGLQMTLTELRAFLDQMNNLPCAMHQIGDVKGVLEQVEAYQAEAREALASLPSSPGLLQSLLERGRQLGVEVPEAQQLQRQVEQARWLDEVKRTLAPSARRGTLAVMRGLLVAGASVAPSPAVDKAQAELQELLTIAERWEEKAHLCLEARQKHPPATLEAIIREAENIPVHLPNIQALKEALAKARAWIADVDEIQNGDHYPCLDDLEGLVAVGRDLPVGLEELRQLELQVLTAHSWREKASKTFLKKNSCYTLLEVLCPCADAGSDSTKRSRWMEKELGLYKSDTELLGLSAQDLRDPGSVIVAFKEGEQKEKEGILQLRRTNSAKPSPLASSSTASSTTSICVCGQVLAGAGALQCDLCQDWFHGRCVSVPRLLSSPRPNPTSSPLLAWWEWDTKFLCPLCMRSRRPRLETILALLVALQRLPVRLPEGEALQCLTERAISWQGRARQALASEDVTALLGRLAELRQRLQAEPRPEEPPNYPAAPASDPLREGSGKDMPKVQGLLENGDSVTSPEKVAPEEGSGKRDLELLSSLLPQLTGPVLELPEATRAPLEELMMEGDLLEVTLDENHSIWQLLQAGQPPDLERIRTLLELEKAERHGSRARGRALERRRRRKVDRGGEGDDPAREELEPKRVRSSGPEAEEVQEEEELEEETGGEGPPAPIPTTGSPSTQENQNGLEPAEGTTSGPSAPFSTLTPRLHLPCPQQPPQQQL

CN(C)C/C=C/C(=O)Nc1cccc(CN(C)CCc2cnn(-c3nccc4c(=O)[nH]cnc34)c2)c1 [Compound 6]
covalent binding to KDM5C by MS [1]: no covalent binding
covalent binding to KDM4B by MS [2]: no covalent binding
